{
  "source": "paper PMC12800093",
  "about": "(Nature Communications, 2025)",
  "key": {"[1]": {"test_system": "Mtb-secreted proteases (mc^2 6230 supernatant)", "conditions": "proteolytic Mtb (mc^2 6230) supernatant, two weeks (0, 1, 7, 14 d), HPLC; n = 3 technical replicates"}, "[2]": {"test_system": "nutrient-starved NRP Mtb H37Rv", "test": "Kill curves with nutrient-starved non-replicating Mtb", "assay_type": "cell-based, M. tuberculosis"}, "[3]": {"test_system": "hypoxia-induced NRP Mtb H37Ra", "assay_type": "cell-based, M. tuberculosis"}, "[4]": {"test_system": "proliferating Mtb (H37Rv) cultures"}, "[5]": {"test": "Human serum proteolytic stability", "assay_type": "in vitro ADME", "conditions": "observed during serum proteolysis experiments, 25% v/v human serum"}},
  "note": "Where a SMILES comes first, the peptide text is derived from it. Where no end group is shown, it is not given here. [ ]: non-standard residue; d: D form.",
  "data": [
    {"compound": "KRWHWWRRHWVVW-NH2 [MAD1]", "values": [
      {"measurement": "Stability in the presence of Mtb-secreted proteases", "setting": "[1]", "result": "completely proteolyzed after 14 days"}
    ]},
    {"compound": "NNC(=O)c1ccncc1", "note": "[INH, isoniazid, reference compound]", "values": [
      {"measurement": "activity under nutrient starvation conditions", "setting": "[2]", "result": "inactive"},
      {"measurement": "activity under hypoxic conditions", "setting": "[3]", "result": "inactive"},
      {"measurement": "incubation time at which regrowth of treated Mtb cultures was permitted", "setting": "[4]", "result": 3, "unit": "days"},
      {"measurement": "reduction in the first week of exposure", "setting": "[4]", "result": "~ 2 log"}
    ]},
    {"compound": "CC(C)[C@@H](NC(=O)[C@H](N)Cc1c[nH]c2ccccc12)C(=O)N[C@@H](C(=O)N[C@H](Cc1c[nH]c2ccccc12)C(=O)N[C@H](Cc1c[nH]cn1)C(=O)N[C@H](CCCNC(=N)N)C(=O)N[C@H](CCCNC(=N)N)C(=O)N[C@H](Cc1c[nH]c2ccccc12)C(=O)N[C@H](Cc1c[nH]c2ccccc12)C(=O)N[C@H](Cc1c[nH]cn1)C(=O)N[C@H](Cc1c[nH]c2ccccc12)C(=O)N[C@H](CCCNC(=N)N)C(=O)N[C@H](CCCCN)C(N)=O)C(C)C", "note": "[MAD1-RI] (H-[dW][dV][dV][dW][dH][dR][dR][dW][dW][dH][dW][dR][dK]-NH2)", "values": [
      {"measurement": "binding to human serum proteins", "setting": "[5]", "result": "significant binding"},
      {"measurement": "Stability in the presence of Mtb-secreted proteases", "setting": "[1]", "result": "generally remained stable up to two weeks"}
    ]}
  ]
}
